For four compounds, ID50 results are on record in US20040018210A1, “Cholesterol-lowering agent” (priority 2001, published 2004).

The structures appear in SMILES notation.

The test system of this experiment is T9A4 human hepatic cells. The experiment can be described thus: In vitro analysis of the hypocholesterolaemic effect: de novo synthesis of cholesterol measured by incorporation of C14-acetate. The experiment is classed as cell-based. The note with it: main purified oxylanosterol molecules. On the procedure: In the present context, the hypocholesterolaemic effect of the present product is evaluated in a qualitative manner on the model of T9A4 human hepatic cells cultured in vitro. Although it is known that such results cannot be transferred directly to man in vivo, they nevertheless provide useful indications. The hypocholesterolaemic effect is evaluated by measurement of the de novo synthesis of cholesterol on human hepatic cells in culture by measuring the incorporation of C^14-acetate. A means of evaluation of this de novo synthesis is described in a method presented below.
T9A4 human hepatic cells are grown on LCM medium (Biofluids, Rockville, Md.) at 37° C. under 3.5% CO2. The cells are seeded in 24-well culture boxes and incubated to confluence with 1 mM C14-acetate (1 mCi/mol, Amersham) for 20 hours in the absence (control) or in the presence of the extract rich in oxygenated derivatives of lanosterol obtained from fungi and/or purified fractions, dissolved in methanol.
A lipid extraction is carried out by incubation in a hexane:isopropanol (3:2) mixtures for 30 minutes at ambient temperature. The extract is then dried under nitrogen and then redissolved in hexane and subjected to thin layer high performance chromatography (Merck, Darmstadt, Germany) with a hexane:diethyl ether:acetic acid (75:25:1) mixture as the solvent. The cholesterol neosynthesis is determined by measuring the incorporation of C^14-acetate within the cholesterol with the aid of an imager (Camberra Packard, Zurich, Switzerland) and is expressed in % of the control.
ID50 represents the dose which inhibits the cholesterol synthesis by 50%. It can be seen that the various extracts have a considerable hypocholesterolaemic activity.

`C/C(=C\CC[C@@H](C)[C@H]1CC[C@@]2(C)C3=CC[C@H]4C(C)(C)[C@@H](O)CC[C@]4(C)C3=CC[C@]12C)CO` [Ganoderol B] came in with an ID50 of 10 μq/ml.
The figure for `C/C(C=O)=C\CC[C@@H](C)[C@H]1CC[C@@]2(C)C3=CC[C@H]4C(C)(C)C(=O)CC[C@]4(C)C3=CC[C@]12C` [Ganoderal A] is 7 μq/ml.
The figure for `C/C(=C\CC[C@@H](C)[C@H]1CC[C@@]2(C)C3=CC[C@H]4C(C)(C)C(=O)CC[C@]4(C)C3=CC[C@]12C)CO` [Ganoderol A] is 1 μq/ml; for `C/C(=C\CC[C@@H](C)[C@H]1CC[C@@]2(C)C3=CC[C@H]4C(C)(C)[C@@H](O)CC[C@]4(C)C3=CC[C@]12C)C(=O)O` [Ganoderic acid Y] it is 0.5 μq/ml.
